For this assay, the system named is B16V mouse melanoma cells. The experiment in a line: Depigmentation effect on melanoma cell cultures (inhibition of pigmentation / melanin inhibition). The format is cell-based. To be noted: for IC50: Mus musculus, B16V cells, 0.3 mM tyrosine and 10 nM α-MSH, 96 h incubation, absorption at 400 nm. As for the experimental part: B16V mouse melanoma cells are disseminated in a 96-well micro-titre plate in a concentration of 7.5×10^3 cells/well. After cultivation for 24 h at 37° C. and 5% CO2 in RPMI medium, enriched with 10% foetal calf serum, various concentrations of the test substances and 0.3 mM tyrosine and 10 nM α-MSH (α-melanocyte stimulating hormone) are added and incubated for a further 96 h. The maximum concentration of the test substances used corresponds to 0.1 times the value of the IC20 value of the cytotoxicity assay. Only tyrosine and α-MSH are added to the controls. After incubation, sodium hydroxide solution (final concentrations: 1 M) is added to the culture medium and the absorption (A) is measured after 3 h at 400 nm.
The inhibition of pigmentation in the presence of the test compounds was calculated using the following equation:
Inhibition of pigmentation (%)=100−[(Atest compound/Acontrol)×100]
wherein Atest compound=absorption of the wells with test substance and with cells Acontrol=absorption of the wells without test substance, but with cells
From the inhibition of pigmentation (%) in a series of dilutions of test compounds, the IC50 for each test compound is calculated. This is the concentration of a test compound at which pigmentation is inhibited by 50%. The results are compiled in Table 1:
Experimental procedure as described in Example 1. SymWhite® 377 stands for Phenylethyl resorcinol.
The Synergy Index (SI)^1 is calculated according to Kull's equation as follows: […]
with A: individual result of substance A B: individual result of substance B C: result of the mixture of A and B D: percentage of substance Ain the mixture E: percentage of substance B in the mixture ^1 The calculation of the synergy index (SI-value) was carried out on the basis of following literature: D. C. Steinberg, Cosmetics & Toiletries 2000, 115 (11), 59-62 and F. C. Kull et al., Applied Microbiology 1961, 9, 538-541.
In contrast to the given examples in the literature, in which reduced values for A, B and C (i.e. the minimal concentration of inhibition in antimicrobial tests) mean better activity and consequently SI values <1 document a synergistic effect, increasing values of the here analysed melanin inhibition mean better efficacy. According to Kull's equation the evidence for a synergistic effect results for SI values >1. In the experiments with Sclareolide and SyrnWhite® 377 the calculated SI values obviously exceed 1 (experiments 1 and 2). From this it follows that a composition of Sclareolide and SymWhite® 377 constitutes a potent synergistic combination of active ingredients.

Consider `O=c1cc(CO)occ1O` [Kojic acid, 5-hydroxy-2-hydroxymethyl-4-pyranone], for which the IC50 was found to be 452 µM. In the case of `CC1(C)CCC[C@]2(C)C3CC(=O)O[C@]3(C)CC[C@@H]12` (stereo partly drawn) [Sclareolide, (3aR,5aS,9aS,9bR)-decahydro-3a,6,6,9a-tetramethyl-naphtha[2,1-b]furan-2(1H)-one], the IC50 was found to be 10.2 µM. Besides, the Melanin inhibition (Ex. 1, Kull variable A, conc. 3.2 μm) worked out at 50.0%. The Melanin inhibition (Ex. 2, Kull variable A, conc. 3.2 μm) is given as 35.8%.

Take `CC(c1ccccc1)c1ccc(O)cc1O` (stereo not shown) [SymWhite ® 377, 4-(1-phenylethyl)1,3-dihydroxybenzene]: the Melanin inhibition (Ex. 1, Kull variable B, conc. 1.6 μm) turned out to be 59.8% and the Melanin inhibition (Ex. 2, Kull variable B, conc. 1.6 μm) was found to be 55.9%. As for `OC[C@H]1O[C@@H](Oc2ccc(O)cc2)[C@H](O)[C@@H](O)[C@@H]1O` [beta-Arbutin], the IC50 turned out to be 67 µM.

By IC50 is commonly meant the concentration needed to halve the response being measured.

Values taken from patent US20210069083A1, “METHOD FOR IMPROVING SKIN WHITENING POWER OF A SKIN WHITENING AGENT” (Symrise AG, priority 2013, published 2021).
